Test [1] relates to A-375. As to the kind of experiment: Cytotoxicity against human A375 cells after 72 hrs by MTT assay. Format: functional, cell-based. Conditions: A-375, 72 h. On the technique in general: Tetrazolium assays rely on reduction of a dye to a coloured formazan, in cell work by metabolically active cells.
In test [2] the test system is HCT-116. The experiment in a line: Cytotoxicity against human HCT116 cells after 72 hrs by MTT assay. Conditions: HCT-116, 72 h. It counts as functional, cell-based.
The subject of another test is NCI-N87. The experiment in a line: Cytotoxicity against human NCI-N87 cells at 10 uM after 72 hrs by MTT assay. Format: functional. The note with it: NCI-N87, 72 h.
A short description of test [3]: Cytotoxicity against human LN18 cells at 10 uM after 72 hrs by MTT assay. Format: functional. The note with it: LN-18, 72 h.
Test [4] relates to A-375. The experiment in a line: Cytotoxicity against human A375 cells at 10 uM after 72 hrs by MTT assay. Format: functional. The note with it: A-375, 72 h.
The next test can be described thus: cells. It counts as functional. Conditions: Homo sapiens, 786-0, 72 h.
The test system of a further test is HepG2. The experiment in a line: Cytotoxicity against human HepG2 cells at 10 uM after 72 hrs by MTT assay. It counts as functional. Conditions: HepG2, 72 h.
A further test deals with K562. The experiment in a line: Cytotoxicity against human K562 cells at 10 uM after 72 hrs by MTT assay. It counts as functional. The note with it: K562, 72 h.
A further test relates to MDA-MB-231. The experiment in a line: Cytotoxicity against human MDA-MB-231 cells at 10 uM after 72 hrs by MTT assay. Format: functional. Conditions: MDA-MB-231, 72 h.
Another test concerns HT-29. The experiment in a line: Cytotoxicity against human HT-29 cells at 10 uM after 72 hrs by MTT assay. Format: functional. Conditions: HT-29, 72 h.
For test [5], the system named is HCT-116. The experiment in a line: Cytotoxicity against human HCT116 cells at 10 uM after 72 hrs by MTT assay. Format: functional. Conditions: HCT-116, 72 h.
Test [6] in a line: Cytotoxicity against human U937 cells at 10 uM after 72 hrs by MTT assay. It counts as functional. Conditions: U-937, 72 h.
Test [7] can be described thus: Cytotoxicity against human NCI-H1115 cells at 10 uM after 72 hrs by MTT assay. Format: functional. The note with it: NCI-H1115, 72 h.
In another test the test system is NCI-H69. The experiment in a line: Cytotoxicity against human NCI-H69 cells at 10 uM after 72 hrs by MTT assay. Conditions: NCI-H69, 72 h. Format: functional.
A further test has as its system PC-3. The experiment in a line: Cytotoxicity against human PC3 cells at 10 uM after 72 hrs by MTT assay. It counts as functional. The note with it: PC-3, 72 h.
Test [8] is described as follows: Cytotoxicity against human Jurkat E6-1 cells at 10 uM after 72 hrs by MTT assay. Format: functional.

Bounds are passed on as bounds.

Description for cells: Cytotoxicity against human 786-O cells at 10 uM after 72 hrs by MTT assay

As for `CNC(=O)c1cc(Oc2ccc(NC(=O)Nc3ccc(Cl)c(C(F)(F)F)c3)cc2)ccn1` [SORAFENIB], the IC50 with A-375 [1] was found to be 7.56 µM; with HCT-116 [2], 5.65 µM.

Regarding `COc1ccc(-c2cc3ccc(OC)c(OC)c3c(=O)n2CCC=O)cc1OC`, the IC50 with A-375 [1] is 5.82 µM; in the test on HCT-116 [2], greater than 10 µM.

Consider `COc1ccc(-c2cc3ccc(OC)c(OC)c3c(=O)[nH]2)cc1OC`, for which the IC50 with A-375 [1] and in the test on HCT-116 [2] was greater than 10 µM each time.

For the compound `C=Cc1cc2c(cc1-c1cc3ccc(OC)c(OC)c3c(=O)[nH]1)OCO2`, the IC50 in the test on A-375 [1] is 0.43 µM; in the test with HCT-116 [2] it was 1.54 µM.

For `COc1ccc2cc3n(c(=O)c2c1OC)CC=Cc1cc2c(cc1-3)OCO2`, the inhibition at 10 µM was 46% in the test on NCI-N87; 56.4% in [3]; 86.5% with A-375 [4]; 61.9% in the test “cells”; 54.6% in the test on HepG2; 51% in the test on K562. The inhibition at 10 µM in the test with MDA-MB-231 stood at 39.1%; with HT-29 it was 50.3%; in the test with HCT-116 [5], 59.1%; in [6], 66.9%; in test [7], 77.7%; in the test with NCI-H69, 56.8%. The inhibition at 10 µM is 58.4% in the test with PC-3 and 73% in test [8]. The IC50 with A-375 [1] worked out at 0.59 µM; in the test on HCT-116 [2], 4.87 µM.

As for `COc1ccc2cc3n(c(=O)c2c1OC)CC(O)C(O)c1cc2c(cc1-3)OCO2` (centres undefined), the inhibition at 10 µM with NCI-N87 is 18.3%; in test [3], 36.5%; with A-375 [4] it was 51.1%; in the test “cells”, 11%; in the test with HepG2, 20.9%; in the test on K562, 15.6%. For the same compound, the inhibition at 10 µM worked out at 9.29% in the test with MDA-MB-231; 7.56% in the test on HT-29; 32.8% with HCT-116 [5]; 23.5% in test [6]; 25.8% in [7]; 19.8% in the test on NCI-H69. Moreover, the inhibition at 10 µM was determined as 33.9% with PC-3 and 14.8% in test [8]. For the same compound, the IC50 came to 9 µM in the test on A-375 [1] and 22.2 µM in the test with HCT-116 [2].

As to `C=CCn1c(-c2ccc3c(c2)OCO3)cc2ccc(OC)c(OC)c2c1=O`, the IC50 in the test with A-375 [1] came out at 0.2 µM; in the test with HCT-116 [2] it was 0.86 µM.

For `COc1ccc2cc(-c3ccc4c(c3)OCO4)[nH]c(=O)c2c1OC`, the IC50 with A-375 [1] was 7.99 µM; with HCT-116 [2] it was greater than 10 µM.

As to `C=CCn1c(-c2ccc(OC)c(OC)c2)cc2ccc(OC)c(OC)c2c1=O`, the IC50 in the test with A-375 [1] was 0.5 µM; in the test with HCT-116 [2], greater than 10 µM.

Consider `COc1cc2c(cc1OC)-c1cc3ccc(OC)c(OC)c3c(=O)n1CC=C2`, for which the IC50 came to 2.1 µM with A-375 [1] and 8.84 µM in the test with HCT-116 [2].

As to `CO/C=C/Cn1c(-c2ccc3c(c2)OCO3)cc2ccc(OC)c(OC)c2c1=O`, the IC50 in the test on A-375 [1] is 0.11 µM; in the test with HCT-116 [2] it was 0.42 µM.

Take `C=CCn1c(-c2cc3c(cc2C=C)OCO3)cc2ccc(OC)c(OC)c2c1=O`: the IC50 in the test with A-375 [1] was 0.17 µM; in the test on HCT-116 [2] it was 0.65 µM.

With `COc1ccc2cc(-c3ccc4c(c3)OCO4)n(CC=O)c(=O)c2c1OC`, the IC50 worked out at 3.77 µM with A-375 [1] and 9.23 µM in the test on HCT-116 [2].

For the compound `C=CCOc1nc(-c2ccc(OC)c(OC)c2)cc2ccc(OC)c(OC)c12`, the IC50 in the test with A-375 [1] and in the test on HCT-116 [2] was greater than 10 µM throughout.

As for `COc1ccc2cc(-c3ccc4c(c3)OCO4)n(CCC=O)c(=O)c2c1OC`, the IC50 in the test on A-375 [1] came out at 2.93 µM; with HCT-116 [2], 4.69 µM.

Turning to `C=CCOc1nc(-c2ccc3c(c2)OCO3)cc2ccc(OC)c(OC)c12`, the IC50 in the test on A-375 [1] and in the test with HCT-116 [2] was greater than 10 µM in each case.

As to `COc1ccc2cc(-c3ccc4c(c3)OCO4)n(CC(O)CO)c(=O)c2c1OC` (racemic), the IC50 in the test with A-375 [1] and with HCT-116 [2] was greater than 10 µM throughout.

Take `CCCS(=O)(=O)Nc1ccc(F)c(C(=O)c2c[nH]c3ncc(-c4ccc(Cl)cc4)cc23)c1F` [VEMURAFENIB]: the values for the IC50 in the test on A-375 [1] and in the test on HCT-116 [2] were 0.18 µM and greater than 30 µM, respectively.

One may read the IC50 as the concentration needed to halve the response being measured. The term inhibition denotes how much of the control response was suppressed. Low values mean a response near the control, high ones a response far below the control.

Source of the values: ChEMBL document CHEMBL3085662, “Overman rearrangement and Pomeranz-Fritsch reaction for the synthesis of benzoazepinoisoquinolones to discover novel antitumor agents” (Eur J Med Chem, 2013).
